Measured values as given in ChEMBL document CHEMBL3588779, “Novel 3-(1H-indol-3-yl)-2-[3-(4-methoxyphenyl)ureido]propanamides as selective agonists of human formyl-peptide receptor 2” (Bioorg Med Chem, 2015).

What was measured:
[1] = target: T1, N-formyl peptide receptor 2 (Homo sapiens) (UniProt P25090); assay: Agonist activity at FPR2 in human PMN assessed as stimulation of Ca2+ influx measured every 5 secs for 240 secs by FLIPR assay relative to fMLF in absence of probenecid; assay type: functional
T1 sequence (whole entry): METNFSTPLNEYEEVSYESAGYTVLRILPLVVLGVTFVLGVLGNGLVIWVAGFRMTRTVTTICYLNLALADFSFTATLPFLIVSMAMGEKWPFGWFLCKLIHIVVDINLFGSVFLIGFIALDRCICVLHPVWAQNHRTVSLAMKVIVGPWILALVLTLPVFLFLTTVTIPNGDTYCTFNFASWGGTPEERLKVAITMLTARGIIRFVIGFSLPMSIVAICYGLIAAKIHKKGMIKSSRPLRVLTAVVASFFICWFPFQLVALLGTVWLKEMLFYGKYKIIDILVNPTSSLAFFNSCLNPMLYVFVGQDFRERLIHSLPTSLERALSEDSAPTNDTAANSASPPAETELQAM

[2] = target: T2, fMet-Leu-Phe receptor (Homo sapiens) (UniProt P21462); assay: Agonist activity at human FPR1 transfected in human HL60 cells assessed as stimulation of Ca2+ influx measured every 5 secs for 240 secs by FLIPR assay relative to fMLF; assay type: functional, cell-based; settings: HL-60
T2 sequence (whole entry): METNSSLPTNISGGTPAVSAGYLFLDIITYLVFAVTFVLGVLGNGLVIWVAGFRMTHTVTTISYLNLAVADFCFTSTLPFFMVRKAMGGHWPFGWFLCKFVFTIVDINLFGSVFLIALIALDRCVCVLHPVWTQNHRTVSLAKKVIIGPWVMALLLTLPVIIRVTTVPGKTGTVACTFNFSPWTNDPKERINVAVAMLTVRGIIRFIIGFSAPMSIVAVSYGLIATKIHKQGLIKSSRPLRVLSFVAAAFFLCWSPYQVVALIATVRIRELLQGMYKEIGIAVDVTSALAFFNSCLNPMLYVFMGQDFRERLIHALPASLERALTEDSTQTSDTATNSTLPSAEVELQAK

[3] = target: T1, N-formyl peptide receptor 2 (Homo sapiens); assay: Agonist activity at human FPR2 transfected in human HL60 cells assessed as stimulation of Ca2+ influx measured every 5 secs for 240 secs by FLIPR assay relative to WKYMVm; assay type: functional, cell-based; settings: HL-60
[4] = target: T3, N-formyl peptide receptor 2 (Homo sapiens, UniProt P25090); assay: Agonist activity at FPR2 in human PMN assessed as stimulation of Ca2+ influx measured every 5 secs for 240 secs by FLIPR assay in absence of probenecid; assay type: functional
T3 sequence (P25090 whole entry): T1 sequence (whole entry)

[5] = target: T3, N-formyl peptide receptor 2; assay: Agonist activity at human FPR2 transfected in human HL60 cells assessed as stimulation of Ca2+ influx measured every 5 secs for 240 secs by FLIPR assay; assay type: functional, cell-based, HL-60
[6] = target: T1, N-formyl peptide receptor 2 (Homo sapiens); assay: Agonist activity at FPR2 in human PMN assessed as stimulation of Ca2+ influx measured every 5 secs for 240 secs by FLIPR assay relative to fMLF in presence of probenecid; assay type: functional
fMet-Leu-Phe receptor = target: T4, fMet-Leu-Phe receptor (Homo sapiens, UniProt P21462); assay: Agonist activity at human FPR1 transfected in human HL60 cells assessed as stimulation of Ca2+ influx measured every 5 secs for 240 secs by FLIPR assay; assay type: functional, cell-based, HL-60
T4 sequence (P21462 whole entry): T2 sequence (whole entry)

[7] = target: T3, N-formyl peptide receptor 2; assay: Agonist activity at FPR2 in human PMN assessed as stimulation of Ca2+ influx measured every 5 secs for 240 secs by FLIPR assay in presence of probenecid; assay type: functional
[8] = target: T5, Formyl peptide receptor-related sequence 1 (Mus musculus) (UniProt O08790); assay: Agonist activity at FPR2 in BALB/c mouse assessed as stimulation of Ca2+ influx measured every 5 secs for 240 secs by FLIPR assay relative to fMLF; assay type: functional
T5 sequence (whole entry): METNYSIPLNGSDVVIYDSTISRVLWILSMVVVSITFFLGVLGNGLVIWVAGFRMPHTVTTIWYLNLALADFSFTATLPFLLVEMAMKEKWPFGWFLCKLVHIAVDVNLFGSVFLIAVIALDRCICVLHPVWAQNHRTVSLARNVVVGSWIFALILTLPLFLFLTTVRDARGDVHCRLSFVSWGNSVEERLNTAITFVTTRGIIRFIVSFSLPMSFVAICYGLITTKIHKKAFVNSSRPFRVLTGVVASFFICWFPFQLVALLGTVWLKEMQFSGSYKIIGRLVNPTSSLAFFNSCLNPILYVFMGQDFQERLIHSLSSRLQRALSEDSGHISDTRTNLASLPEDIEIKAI

Liver microsome [9] = settings: rat, microsomes, 1 µM
Liver microsome [10] = settings: rat, microsomes, 1 µM; remark: listed apart in the source
Description: Half life in rat liver microsomes at 1 uM preincubated for 10 mins followed by addition of NADPH regenerating system by LC-MS analysis

Row | Compound | Efficacy [1] | Efficacy [2] | Efficacy [3] | EC50 ([4]; read-out: EC50) | EC50 ([5]; read-out: EC50) | Efficacy [6] | EC50 (fMet-Leu-Phe receptor; read-out: EC50) | EC50 ([7]; read-out: EC50) | Efficacy [8] | CLH (Liver microsome [9]) | t1/2 (Liver microsome [10]) | EC50 (fMet-Leu-Phe receptor; hl-60) | EC50 [4] | EC50 ([5]; hl-60) | EC50 [7]
1 | COc1ccc(NC(=O)N[C@@H](Cc2c[nH]c3ccccc23)C(=O)NCC2(c3ccccn3)CCCCC2)cc1 | 85% | 115% | 135% | 1800 nM | 430 nM | 120% | 950 nM | 450 nM | 80% | 2173.4 µL/min/mg | – | – | – | – | –
2 | COc1ccc(NC(=O)N[C@@H](Cc2c[nH]c3ccccc23)C(=O)NCC2(c3ccc(OC)cn3)CCCCC2)cc1 | – | 130% | 120% | – | – | 105% | 430 nM | – | 110% | 1162.4 µL/min/mg | 1.1 min | – | – | – | –
3 | COc1ccc(NC(=O)N[C@@H](Cc2c[nH]c3ccccc23)C(=O)NCC2(c3cccnc3)CCCCC2)cc1 | 30% | – | 75% | 1800 nM | 730 nM | 105% | – | 270 nM | 75% | – | – | Not Active | – | – | –
4 | COc1ccc(NC(=O)N[C@H](Cc2c[nH]c3ccccc23)C(=O)NCC2(c3ccc(F)cc3)CCCCC2)cc1 | – | – | – | – | – | – | – | – | 25% | – | – | Not Active | Not Active | Not Active | Not Active
5 | COc1ccc(NC(=O)N[C@H](Cc2c[nH]c3ccccc23)C(=O)NCC2(c3cccnc3)CCCCC2)cc1 | – | – | – | – | – | – | – | – | 80% | – | – | Not Active | Not Active | Not Active | Not Active
6 | COc1ccc(NC(=O)N[C@H](Cc2c[nH]c3ccccc23)C(=O)NCC2(c3ccnc(F)c3)CCCCC2)cc1 | – | – | – | – | – | – | – | – | 65% | – | – | Not Active | Not Active | Not Active | Not Active
7 | COc1ccc(NC(=O)N[C@H](Cc2c[nH]c3ccccc23)C(=O)NCC2(c3ccccc3)CCCCC2)cc1 | – | – | 65% | – | 260 nM | 40% | – | 970 nM | 35% | – | – | Not Active | Not Active | – | –
8 | COc1ccc(NC(=O)N[C@@H](Cc2c[nH]c3ccccc23)C(=O)NCC2(c3ccccc3)CCCCC2)cc1 | – | – | – | – | – | – | – | – | 60% | – | – | Not Active | Not Active | Not Active | Not Active
9 | COc1ccc(NC(=O)N[C@H](Cc2c[nH]c3ccccc23)C(=O)NCC2(c3ccc(OC)cn3)CCCCC2)cc1 | 40% | – | 100% | – | – | 95% | – | – | 30% | 1290.6 µL/min/mg | 1.2 min | Not Active | – | – | –
10 | COc1ccc(C2(CNC(=O)[C@](C)(Cc3c[nH]c4ccccc34)NC(=O)Nc3ccc([N+](=O)[O-])cc3)CCCCC2)nc1 | – | – | – | – | – | – | – | – | – | 314.1 µL/min/mg | 4.4 min | – | – | – | –
11 | O=C(O)Cc1ccccc1Nc1c(Cl)cccc1Cl [DICLOFENAC] | – | – | – | – | – | – | – | – | – | 159.8 µL/min/mg | 8.7 min | – | – | – | –
12 | COc1ccc(NC(=O)N[C@@H](Cc2c[nH]c3ccccc23)C(=O)NCC2(c3ccc(F)cc3)CCCCC2)cc1 | – | – | 40% | – | 860 nM | 55% | – | 1100 nM | 25% | – | – | Not Active | Not Active | – | –
13 | COc1ccc(NC(=O)N[C@@H](Cc2c[nH]c3ccccc23)C(=O)NCC2(c3ccnc(F)c3)CCCCC2)cc1 | 55% | – | 115% | 12600 nM | 1600 nM | 130% | – | 660 nM | 50% | – | – | Not Active | – | – | –
14 | COc1ccc(NC(=O)N[C@H](Cc2c[nH]c3ccccc23)C(=O)NCC2(c3ccccn3)CCCCC2)cc1 | 40% | – | 90% | 620 nM | 310 nM | 115% | – | 490 nM | 55% | 2476 µL/min/mg | 0.6 min | Not Active | – | – | –
